How the values were obtained:
[1] = molecular target: T1, Nitric oxide synthase (neuronal, human recombinant) nNOS (Homo sapiens, UniProt P29475); assay: nNOS (human) enzyme assay, [3H]-L-arginine to L-citrulline; format: biochemical; conditions: for IC50: Table 10, human nNOS, read-out: nNOSh; for e/n: Table 10, ratio eNOS/nNOS
T1 construct: purchased Axxora LLC ALX-201-068
Protocol: nNOS (Human), eNOS (Human) Enzyme Assay
Human nNOS and eNOS Protocol:
Procedure for Human nNOS and eNOS
Primary stock solutions of test compounds at a concentration of 6 mM are prepared. The primary stock solutions of each test compound are prepared freshly in distilled water on the day of study. […] Concentration range of test compound utilized for nNOS are 0.001 to 300 μM and for eNOS are 0.003 to 1000 μM. The vehicle of the test compound or inhibitor is used as blank control.
All incubations are performed in duplicate:
Prepare the reaction mixture on ice by adding the following components with a micropipette to a polypropylene microcentrifuge tube:
Total reaction volume is 60 μL.
Mix using a vortex mixer and incubate the above reaction mixture at 37° C. in an incubator for 30 minutes.
Add 400 μL of ice-cold Stop Buffer at the end of the incubation period to stop the reaction. (The EDTA in the Stop Buffer chelates all of the available calcium.)
Mix using a vortex mixer and transfer the reaction samples to spin cups and centrifuge using a microcentrifuge, at 13,000 rpm for 30 sec. at room temperature.
Remove the spin cups from the holder and transfer 450 μL of eluate (containing the unbound L-citrulline) to scintillation vials. Add 3 mL of scintillation fluid and quantify the radioactivity in a liquid scintillation counter.
Calculation of IC50 Values:
Data is analyzed using a Sigmoidal dose-response (variable slope) curve to determine the IC50 value of the test compound. Y=Bottom+(Top−Bottom)/(1+10^((Log IC50−X)*Hill Slope))

[2] = molecular target: Recombinant human inducible NOS (iNOS) (Homo sapiens, UniProt P35228); assay: Human iNOS assay, radiometric; format: biochemical; conditions: Table 10, human iNOS; read-out: iNOSh
Protocol: Recombinant human inducible NOS (iNOS) was produced in Baculovirus-infected Sf9 cells (ALEXIS). […] 15 μL of test substances are added to the mixture with the specific enzyme and pre-incubated at RT for 15 min. • 2. […] The incubation is carried out at 37° C. for 45 min. • 4. […] An aliquot 70 μL of the supernatant is added to 100 μL scintillation fluid. • 8.
The total volume of the reaction mixture is 150 μL in every well. All assays are performed at least in duplicate. Standard deviations are 10% or less.

5-HT1D = 5-HT1D (Bos taurus, UniProt F1MMU1); assay: 5-HT1D binding assay (agonist radioligand), bovine caudate membranes; conditions: Table 11, bovine 1D receptor binding; read-out: 5HT1D
Chain of 5-HT1D (F1MMU1 1-377): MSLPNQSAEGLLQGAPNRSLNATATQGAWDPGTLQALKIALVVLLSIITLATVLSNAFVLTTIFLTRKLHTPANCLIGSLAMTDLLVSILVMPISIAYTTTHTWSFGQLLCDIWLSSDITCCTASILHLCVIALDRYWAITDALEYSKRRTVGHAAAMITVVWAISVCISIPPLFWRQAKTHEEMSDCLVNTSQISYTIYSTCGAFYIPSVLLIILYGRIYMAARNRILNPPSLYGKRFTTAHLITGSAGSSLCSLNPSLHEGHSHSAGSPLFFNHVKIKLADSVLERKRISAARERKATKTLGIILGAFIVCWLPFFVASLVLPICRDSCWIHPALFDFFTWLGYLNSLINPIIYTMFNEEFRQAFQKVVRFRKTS
Protocol: (§1) 5-HT1D binding assays (agonist radioligand) were performed using bovine caudate membranes according to the methods of Heuring and Peroutka (J. Neurosci., 7: 894-903 (1987)). 5-HT1B (rat cerebral cortex) binding assays (agonist radioligand) were performed according to the method of Hoyer et. al. (Eur. J. Pharmacol., 118: 1-12 (1995)). For the purpose of result analysis, the specific ligand binding to the receptors is defined as the difference between the total binding and the nonspecific binding as determined in the presence of an excess of unlabelled ligand. The results are expressed as a percent of control specific binding obtained in the presence of the test compounds.

5-HT1B = molecular target: T2, 5-HT1B (Rattus norvegicus, UniProt P28564); assay: 5-HT1B binding assay (agonist radioligand), rat cerebral cortex; conditions: Table 11, rat 1B receptor binding
T2 construct: from tissue; host or cells: rat cerebral cortex
T2 sequence (P28564 whole entry): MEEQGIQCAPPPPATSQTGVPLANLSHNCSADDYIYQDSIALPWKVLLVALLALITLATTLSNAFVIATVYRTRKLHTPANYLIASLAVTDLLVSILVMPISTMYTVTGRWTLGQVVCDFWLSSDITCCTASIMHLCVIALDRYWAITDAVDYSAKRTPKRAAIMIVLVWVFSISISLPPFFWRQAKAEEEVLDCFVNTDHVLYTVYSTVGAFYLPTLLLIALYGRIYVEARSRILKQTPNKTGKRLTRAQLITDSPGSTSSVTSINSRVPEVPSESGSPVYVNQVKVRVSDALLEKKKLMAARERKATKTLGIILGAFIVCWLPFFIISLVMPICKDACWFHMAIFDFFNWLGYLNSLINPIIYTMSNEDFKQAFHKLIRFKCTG
Protocol: as §1, with “compounds. IC50 values (concentration causing a half-maximal inhibition of control specific binding) and Hill coefficients (nH) were determined by non-linear regression analysis of the competition curves using Hill equation curve fitting and the inhibition constants (Ki) were calculated from the Cheng Prusoff equation (Ki=IC50/(1+(L/KD)), where L=concentration of radioligand in the assay, and KD=affinity of the radioligand for the receptor).” for “compounds.”

[3] = test system: rats with experimental pancreatitis; assay: Pancreatitis visceral pain model (DBTC), referred abdominal hypersensitivity, von Frey; format: in vivo, rat
Protocol: Adult male Sprague Dawley rats (Harlan, Indianapolis, Ind.), weighing 150-200 g were maintained in a climate-controlled room with ad lib food and water on a 12-h light/dark cycle (lights on at 07:00 hours). All procedures followed the policies of the International Association for the Study of Pain and the NIH guidelines for the handling and use of laboratory animals. Studies were approved by the University of Arizona IACUC.
Pancreatitis was produced by a tail vein injection of dibutyltin dichloride (DBTC, Aldrich, Milwaukee, Wis., 0.25 cc) dissolved in 100% ethanol at a dose of 8 mg/kg under isofluorane anesthesia (2-3 liters/min, 4.0%/vol until anesthetized, then 2.5%/vol throughout the procedure) (Vera-Portocarrero et al., 2006). Control animals were injected with the vehicle solution only (100% ethanol, 0.25 cc).
Referred abdominal hypersensitivity in the pancreatitis model was quantified by measuring the number of withdrawals events evoked by application of a calibrated von Frey filament (determined by either abdominal withdrawal, licking of the abdominal area, or whole body withdrawal). Rats were placed inside Plexiglas boxes on an elevated fine fiberglass screen mesh and acclimated for 30 minutes before testing. A 4 g von Frey filament was applied from underneath through the mesh floor, to the abdominal area at different points on the surface. […] The mean occurrence of withdrawal events in each trial is expressed as the number of responses to 10 applications as previously described (Vera-Portocarrero et al., 2003).
Significant differences between each experimental group for the behavioral test across time were detected by a two-factor ANOVA follow by the Fishers Least Significance Difference post-hoc test. One-factor ANOVA was used to detect significant differences in behavioral outcomes within each experimental group over time. A linear regression analysis was used to detect the dose-dependency of the effects. Significance was established at the p<0.05 level.

T1 sequence (P29475 whole entry): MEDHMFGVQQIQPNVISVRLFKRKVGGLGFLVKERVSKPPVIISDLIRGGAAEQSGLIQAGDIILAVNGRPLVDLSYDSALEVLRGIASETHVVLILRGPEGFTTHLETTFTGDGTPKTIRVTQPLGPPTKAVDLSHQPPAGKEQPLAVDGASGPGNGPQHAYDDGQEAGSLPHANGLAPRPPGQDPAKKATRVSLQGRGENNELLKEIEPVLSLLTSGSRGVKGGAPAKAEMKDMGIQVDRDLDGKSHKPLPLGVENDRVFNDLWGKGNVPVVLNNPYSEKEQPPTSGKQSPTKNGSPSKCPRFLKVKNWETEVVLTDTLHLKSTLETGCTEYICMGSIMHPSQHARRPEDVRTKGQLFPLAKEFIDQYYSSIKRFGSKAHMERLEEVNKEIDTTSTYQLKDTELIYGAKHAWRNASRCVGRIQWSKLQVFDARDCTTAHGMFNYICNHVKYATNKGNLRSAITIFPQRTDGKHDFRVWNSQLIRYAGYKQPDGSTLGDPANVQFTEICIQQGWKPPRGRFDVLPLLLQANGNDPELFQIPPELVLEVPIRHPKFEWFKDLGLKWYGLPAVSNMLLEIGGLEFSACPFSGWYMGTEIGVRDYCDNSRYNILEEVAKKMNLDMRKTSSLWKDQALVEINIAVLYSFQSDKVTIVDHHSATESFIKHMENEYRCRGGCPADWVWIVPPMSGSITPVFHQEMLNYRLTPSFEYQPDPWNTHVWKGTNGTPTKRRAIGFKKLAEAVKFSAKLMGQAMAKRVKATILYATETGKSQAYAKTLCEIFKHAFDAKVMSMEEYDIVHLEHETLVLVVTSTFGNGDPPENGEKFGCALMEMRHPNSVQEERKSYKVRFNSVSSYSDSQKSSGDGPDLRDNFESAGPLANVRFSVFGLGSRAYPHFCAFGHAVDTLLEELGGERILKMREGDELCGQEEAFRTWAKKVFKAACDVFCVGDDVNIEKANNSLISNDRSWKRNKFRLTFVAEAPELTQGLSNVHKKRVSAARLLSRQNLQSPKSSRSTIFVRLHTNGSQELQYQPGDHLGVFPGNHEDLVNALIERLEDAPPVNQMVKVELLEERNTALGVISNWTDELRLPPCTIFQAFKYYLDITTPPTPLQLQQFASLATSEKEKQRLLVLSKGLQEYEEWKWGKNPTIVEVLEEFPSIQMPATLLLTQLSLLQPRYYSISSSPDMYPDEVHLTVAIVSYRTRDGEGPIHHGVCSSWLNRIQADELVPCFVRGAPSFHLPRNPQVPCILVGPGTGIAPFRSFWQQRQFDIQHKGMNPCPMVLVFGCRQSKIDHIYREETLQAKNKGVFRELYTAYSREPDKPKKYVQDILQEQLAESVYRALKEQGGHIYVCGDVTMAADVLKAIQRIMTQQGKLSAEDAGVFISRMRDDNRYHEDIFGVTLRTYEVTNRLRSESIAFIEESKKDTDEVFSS

CN1CCC(c2c[nH]c3ccc(NC(=N)c4cccs4)cc23)C1 (single isomer, unassigned) [Compound 6a, N-(3-(1-Methylpyrrolidin-3-yl)-1H-indol-5-yl)thiophene-2-carboximidamide]
IC50 [1]: 0.68 µM | e/n [1]: 67 | IC50 [2]: 25 µM | IC50 (5-HT1D): 0.17 µM | IC50 (5-HT1B): 1.4 µM | reversal of tactile allodynia in pancreatitis visceral pain model [3]: does not reverse tactile allodynia

CN1CCC(c2c[nH]c3ccc(NC(=N)c4cccs4)cc23)C1 (single isomer, unassigned) [Compound 6b, N-(3-(1-Methylpyrrolidin-3-yl)-1H-indol-5-yl)thiophene-2-carboximidamide]
IC50 [1]: 0.205 µM | e/n [1]: 100 | IC50 [2]: 20 µM | IC50 (5-HT1D): 0.079 µM | IC50 (5-HT1B): 0.705 µM | reversal of tactile allodynia in pancreatitis visceral pain model [3]: reverse the tactile allodynia

From patent US8673909B2, “Indole compounds and methods for treating visceral pain” (NeurAxon, Inc., priority 2007, dated 2014)
